Laboratory results taken from article PMC4265395 (Malaria Journal, 2014).
Read-outs that look alike come from different tables or passages of the source. Marks after values point to notes of the source that are not given here.

Columns and labels:
[1] = test system: CQ-R P. falciparum parasites (W2 clone); assay: anti-HRPII test, P. falciparum CQ-R W2 clone in culture; format: cell-based, Plasmodium falciparum; settings: for IC50: Plasmodium falciparum; for SI (MLD50/IC50) W2 (CQ-R): MLD50 HepG2 / IC50 W2
Experimental: (§1) Before tests with the molecules were performed, ring stage parasites were synchronized using sorbitol and the parasitaemia and haematocrit were adjusted; 180 μL/well was added to 96-well microtiter plates (Corning, Santa Clara, CA, USA) containing the diluted compounds tested in triplicate. Drug activity was evaluated in relation to control cultures with no drugs and was measured using the anti-histidine-rich protein II (HRPII) test as described. CQ was used in each test as a control, and two to four experiments were performed for each parasite strain.
(§2) The cultures were added to plates containing the diluted drugs, followed by incubation for 24 h under standard culture conditions. The contents of six wells with no drugs were harvested in each test plate, pooled in microtubes, and frozen for later use to measure the background parasite growth as described. […] Phosphate-buffered saline (PBS) containing 0.05% Tween and 4% bovine serum albumin was used for plate blocking (3 h at room temperature) to avoid nonspecific antibody binding. After 1 h at room temperature, the plate was washed, and 100 μL/well of a secondary antibody solution (MPFG-55P ICLLAB®, USA) was added, followed by incubation with 3,3′,5,5′-tetramethylbenzidine (TMB) chromogen (KPL, Gaithersburg, MD, USA) in the dark. […] The anti-P. falciparum drug activity was evaluated by comparing the parasite growth in the drug-free control cultures, considered 100% growth, with that in the drug test cultures.

[2] = test system: CQ-S P. falciparum parasites (3D7 strain); assay: anti-HRPII test, P. falciparum CQ-S 3D7 strain in culture; format: cell-based, Plasmodium falciparum; settings: for IC50: Plasmodium falciparum; for SI (MLD50/IC50) 3D7 (CQ-S): MLD50 HepG2 / IC50 3D7; for Activity class against CQ-S parasites (3D7): in vitro, class by IC50
Experimental: as §1, §2

[3] = test system: P. berghei NK65 blood parasites (CQ-sensitive); assay: Suppressive test in mice, CQ-sensitive P. berghei; format: in vivo, P. berghei in Swiss mice; settings: for Percentage reduction of parasitaemia, CQ-Sensitive, Day 5 / Percentage reduction of parasitaemia, CQ-Sensitive, Day 7: 25 mg/kg oral, four consecutive days, vs non-treated mice; for Percentage reduction of parasitaemia, CQ-Sensitive, Day 5: day 5 after inoculation; for Percentage reduction of parasitaemia, CQ-Sensitive, Day 7: day 7 after inoculation; for Inhibition of P. berghei parasitaemia, day 5 / Inhibition of P. berghei parasitaemia, day 7: 50 mg/kg dose; for Inhibition of P. berghei parasitaemia, day 5: day 5 after infection; for Inhibition of P. berghei parasitaemia, day 7: day 7 after infection; for Mice surviving the infection at least 30 days after the end of treatment: P. berghei-infected mice, groups of five
Experimental: (§3) The protocol for animal use was approved by the Ethics Committee for Animal Use (CEUA LW-23/13) of the Oswaldo Cruz Foundation (Fiocruz). Only Swiss adult female mice (20 ± 2 g weight) were used; they were raised at the animal facilities at FIOCRUZ-Minas.
The suppressive test was performed as described using the P. berghei NK65 blood parasites, with some modifications. Briefly, the blood parasites were maintained through weekly blood passages in mice. For the experiments, groups of 20–30 mice were inoculated with 1 × 10^5 infected erythrocytes. Approximately three hours later, they were randomly distributed into groups of five to six mice per cage, which were treated daily by gavage for four consecutive days. All the compounds were freshly diluted in 3% DMSO (Sigma-Aldrich) in RPMI medium and were administered orally at doses of 25 mg/kg or 50 mg/kg. The control mice received the drug vehicle. On days 5 and 7 after parasite inoculation, blood was taken from the tail of each mouse and used to prepare thin smears, which were methanol-fixed, Giemsa-stained and examined microscopically to determine parasitaemia.

[4] = test system: β-haematin formation; assay: Inhibition of β-haematin formation assay (lipid catalyst); format: biochemical
Experimental: The assay was performed using a lipid as a catalyst to promote crystallization. Briefly, drug stock solutions were prepared in DMSO and were used at a final concentration of up to 30 mM. A haem stock (10 mM) was made in DMSO and was diluted to 50 μM with 100 mM sodium acetate (pH 4.8). […] The plates were incubated at 37°C for 2 h to allow crystallization, followed by the addition of 100 μl of 200 mM sodium bicarbonate (pH 9.1) to solubilize any remaining monomeric haem. After incubation for 30 min at room temperature, the amount of solubilized monomeric haem was determined by measuring the absorbance at 405 nm. Finally, 20 μl of 1 M sodium hydroxide was added to the plates to dissolve any crystals that had been formed, and the absorbance was read at 405 nm to determine the total amount of haem present in each well. The inhibition of haem crystallization was determined as a function of the amount of monomeric haem that was not crystallized divided by the total amount of haem present in the assay mixture. The results are expressed as IC50 values based on the percentage inhibition of β-haematin formation by the CQAn.

[5] = test system: HepG2 cells; format: cell-based; settings: human, 24 h
Experimental: A human hepatoma cell line (HepG2), originally received from the University of Lisbon as a kind gift, was cultured as described. […] When confluent, the cell monolayer was trypsinized, washed with culture medium supplemented with 10% FCS, counted, diluted (5 × 10^3 cells/well), placed in flat-bottom 96-well plates (Corning, Santa Clara, CA, USA), and incubated for 18 h at 37°C to allow cell adhesion. […] After 3 h, the supernatant was discarded, 100 μL of dimethyl sulphoxide (DMSO) was added per well, and the optical density was measured (SpectraMax340PC384, Molecular Devices) at 570 nm (test) and 630 nm (background). Cell viability was expressed as the percentage of the absorbance compared to the absorbance of the untreated cells and subtracted from the appropriate background measurement.

[6] = test system: P. berghei NK65 CQ-resistant strain; format: in vivo, P. berghei in Swiss mice; settings: for Activity class against CQ-resistant P. berghei in mice: 25 mg/kg
Experimental: as §3
A P. berghei NK65 CQ-resistant strain maintained at -70°C, selected by increasing doses of CQ, maintained in mice under constant drug pressure (CQ 150 mg/kg) and stored at -70°C was also defrosted and used to inoculate mice. […] The mice were inoculated with 10^7 parasitized RBCs using blood parasites from a donor with parasites resistant to 150 mg/kg of CQ. Groups of five mice each were separated 24 h after the parasite inoculation, then treated orally with the test CQAn at doses of 25 or 50 mg/kg for three consecutive days. Two control groups were used in each experiment; one received CQ at 150 mg/kg and the other was infected but treated with vehicle only (no drugs). The inhibition of parasitaemia was evaluated as described for the mice inoculated with the CQ-sensitive parasites.

[7] = test system: P. berghei NK65 blood parasites (CQ-sensitive); set-up: method as in de Souza et al. [19]; settings: 25 mg/kg, adapted from earlier paper, ref de Souza et al. [19], cited from earlier work
[8] = experiment 1, read-out: Inhibitory concentration of β-haematin formation (IC50), Exp 1
[9] = experiment 2, read-out: Inhibitory concentration of β-haematin formation (IC50), Exp 2
[10] = experiment 3, read-out: Inhibitory concentration of β-haematin formation (IC50), Exp 3
[11] = W2, anti-HRPII method, average ± SD of two to four experiments, read-out: Anti-P. falciparum activity (IC50) W2 (CQ-R)
[12] = 3D7, anti-HRPII method, average ± SD of two to four experiments, read-out: Anti-P. falciparum activity (IC50) 3D7 (CQ-S)
[13] = 50 mg/kg oral, three consecutive days
[14] = 25 mg/kg (footnote b; head says 50 mg/kg)

Structure (SMILES) | Percentage reduction of parasitaemia, CQ-Sensitive, Day 5 [3] [%] | Percentage reduction of parasitaemia, CQ-Sensitive, Day 7 [3] [%] | Inhibition of P. berghei parasitaemia, day 5 [3] [%] | Inhibition of P. berghei parasitaemia, day 7 [3] [%] | IC50 [4, 8] [µM] | IC50 [4, 9] [µM] | IC50 [4, 10] [µM] | IC50 [1, 11] [µM] | SI (MLD50/IC50) 3D7 (CQ-S) [2] | IC50 [2, 12] [µM] | Activity class against CQ-S parasites (3D7) [2] | Cytotoxicity MLD50 HepG2 cells [5] [µM] | Percentage reduction of parasitaemia, CQ-Resistant, Day 5 [6, 13] [%] | Percentage reduction of parasitaemia, CQ-Resistant, Day 7 [6, 13] [%] | SI (MLD50/IC50) W2 (CQ-R) [1] | further results
CCN(CC)CCCC(C)Nc1ccnc2cc(Cl)ccc12 (stereo not shown) [Chloroquine, reference compound] | 100 | 97 | 100 | 100 | 600 | 2000 | 5000 |  |  |  |  |  |  |  |  | IC50 ([1]; W2, read-out: Anti-P. falciparum activity (IC50) W2 (CQ-R)): 0.38 ± 0.03 µM; IC50 ([2]; 3D7, read-out: Anti-P. falciparum activity (IC50) 3D7 (CQ-S)): 0.081 ± 0.019 µM; Mice surviving the infection at least 30 days after the end of treatment [3]: all
C#CCN(CC#C)CCCCNc1ccnc2cc(Cl)ccc12 [CQAn45] | 88 | 50 |  |  |  |  |  | 0.77 ± 0.21 | 868 | 1.17 | partially active (between 1–5 μM as partially active) | 1015.84 ± 42.97 | 63 | 51 |  | 
C#CCN(CC#C)CCCNc1ccnc2cc(Cl)ccc12 [CQAn39] | 95 | 92 |  |  |  |  |  | 0.64 ± 0.29 | 1342 | 2.39 ± 0.11 | partially active (between 1–5 μM as partially active) | ≥3207.08 | 62 | 30 | 5011 | 
C#CCN(CC#C)CCNc1ccnc2cc(Cl)ccc12 [CQAn37] | 100 | 93 | 100 | 100 | 2700 | 10200 | 7500 | 0.07 ± 0.03 | 2981 | 0.57 ± 0.24 | active | 1699.24 ± 10.07 | 47 | 33 | 24275 | Mice surviving the infection at least 30 days after the end of treatment [3]: Two of the five
C#CCNCCCNc1ccnc2cc(Cl)ccc12 [CQAn28] |  |  |  |  |  |  |  | 0.71 ± 0.03 | 101 | 14.9 ± 3.58 | inactive | 1508.56 ± 344.50 |  |  | 2125 | Activity class against CQ-resistant P. berghei in mice [6]: inactive; Percentage reduction of parasitaemia, CQ-Resistant, Day 5 [6, 14]: 0^b %; Percentage reduction of parasitaemia, CQ-Sensitive, Day 5 [7]: 94^a %; Percentage reduction of parasitaemia, CQ-Sensitive, Day 7 [7]: 24^a %
C#CCNCCNc1ccnc2cc(Cl)ccc12 [CQAn34] | 99 | 81 |  |  |  |  |  | 0.23 ± 0.15 | 3144 | 0.3 ± 0.01 | active | 943.29 ± 73.15 |  |  | 4101 | Activity class against CQ-resistant P. berghei in mice [6]: inactive; Percentage reduction of parasitaemia, CQ-Resistant, Day 5 [6, 14]: 0^b %
C#CCNCCCCNc1ccnc2cc(Cl)ccc12 [CQAn33] |  |  | 100 | 100 | 4700 | 3000 | 5600 | 0.02 ± 0.001 | 131 | 1.17 ± 0.1 | partially active (between 1–5 μM as partially active) | 152.89 ± 12.86 | 53 | 52 | 7645 | IC50 compared with that of CQ ([1]; relative to CQ, P. falciparum in vitro): more than 10 fold; β-haematin formation IC50 compared with that of CQ ([4]; relative to CQ): similar; Percentage reduction of parasitaemia, CQ-Sensitive, Day 5 [7]: 73^a %; Percentage reduction of parasitaemia, CQ-Sensitive, Day 7 [7]: 57^a %
